Assay type in all cases: in vivo
Experiment [1] concerns American cockroaches. Nature of the experiment: Direct spray toxicity of rosemary oil, wintergreen oil and their blend (Example 1). To be noted: sprayed with approximately 3.7 grams; one value per insect. The procedure: Studies were conducted to evaluate the individual toxicity, in terms of speed of action and mortality, of rosemary oil and wintergreen oil against American cockroaches, and then a blend of these two oils to determine if similar toxic effects could be obtained using a proprietary blend that was less expensive to produce and easier to employ in different end-use formulations. Methyl salicylate was used as wintergreen oil. American cockroaches were confined under a screened cap and then sprayed with approximately 3.7 grams of each test chemical using a trigger sprayer. Immediately after spraying, the insects were released into a large plastic container and observed for signs of toxicity. Three American cockroaches were used in each experiment. The times for immobilization (IM), knockdown (KD), and mortality were recorded for each test insect. An untreated control was provided.

Experiment [2] deals with American cockroaches. Nature of the experiment: Test chemical applied directly to thorax of insect using Pasteur Pipette (Table 12). To be noted: 1 drop applied directly to thorax; one value per insect.
The subject of experiment [3] is Melon Aphids Aphis gossypii. The experiment is described as follows: Melon Aphids on squash (Table 11). To be noted: 1 qt/acre, applied three times at one week interval. As for the experimental part:
A formulation (DR-A-034) consisting of 5% w/w rosemary oil, 22.5% w/w wintergreen oil, 22.5% w/w mineral oil, 0.5% w/w lecithin (emulsifier), and 49.5% w/w water was prepared and labeled Hexacide™. Hexacide™ was applied in dilute form at different rates per acre to the pests itemized below in various greenhouse and field studies. In all of these studies, positive controls consisting of conventional pesticides were utilized for comparative efficacy.
Randomized complete block design was used. Five replicates per treatment were performed. 100 gallons spray volume per acre (GPA). Latron CS-7 at 4 ml/gallon was added to all treatments. All foliar applied pesticidal compositions applied, except Admire and Platinum (soil insecticides). HEXACIDE™ Azadiractin and Pyganic applied three times at one week interval. Other products applied once.

SMILES strings stand for the structures. Bounds are passed on as bounds.

Consider `COC(=O)c1ccccc1O` [100% Methyl Salicylate, Methyl salicylate], for which, in the experiment with American cockroaches [1], the “IM (time for immobilization)” value was 45 s and the “Mortality (time)” value is more than 2 min. In addition, on American cockroaches [2], the “KD (knockdown time)” value is given as “no KD” and the “Mortality (time)” value is more than 5 m.

For the compound `C/C=C(\C)C(=O)O[C@H]1C[C@@H](OC(C)=O)[C@@]2(C(=O)OC)CO[C@H]3[C@@H](O)[C@@](C)([C@]45O[C@@]4(C)[C@H]4C[C@@H]5O[C@@H]5OC=C[C@@]54O)[C@H]4[C@]1(CO[C@]4(O)C(=O)OC)[C@@H]32` [Azadiractin], the “Mean % Aphids per Leaf” value in experiment [3] (6 DAT) is 5.4 c %; in experiment [3] (12 DAT) it was 15.1 c %; in experiment [3] (Pretreatment) it was 3.9 b %.

(Values after patent publication US20170118998A1, “PESTICIDAL COMPOSITIONS AND METHODS FOR USING SAME” (priority 1998, published 2017).)
